According to PubChem BioAssay (NCI):
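Five compound concentrations were applied to cells in 96-well plates for 48 hours; endpoints were derived by simple linear interpolation of the resulting dose-response curve. GI50: concentration for 50% inhibition of growth. TGI marks complete inhibition of growth.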

Tests used:
Assay in all cases: DTP human tumour cell line panel, 48 h
[1] = test system: IGROV1 ovarian
[2] = test system: DU-145 prostate
[3] = test system: SK-MEL-2 melanoma
[4] = test system: OVCAR-8 ovarian
[5] = test system: COLO 205 colon
[6] = test system: OVCAR-4 ovarian
[7] = test system: K-562 leukemia
[8] = test system: SN12C renal
[9] = test system: HS 578T breast
[10] = test system: CAKI-1 renal
[11] = test system: HOP-62 NSCLC
[12] = test system: NCI-H226 lung
[13] = test system: UACC-62 melanoma
[14] = test system: SW-620 colon
[15] = test system: NCI/ADR-RES ovarian
[16] = test system: SK-MEL-5 melanoma
[17] = test system: SF-268 CNS
[18] = test system: NCI-H23 lung
[19] = test system: NCI-H522 lung
[20] = test system: 786-0 renal
[21] = test system: MDA-MB-435
[22] = test system: NCI-H460 lung
[23] = test system: HOP-92 NSCLC
[24] = test system: U251 CNS
[25] = test system: T-47D breast
[26] = test system: UACC-257 melanoma
[27] = test system: OVCAR-5 ovarian
[28] = test system: SK-MEL-28 melanoma
[29] = test system: MDA-MB-231 breast
[30] = test system: EKVX NSCLC
[31] = test system: A498 renal
[32] = test system: ACHN renal
[33] = test system: HL-60(TB) leukemia
[34] = test system: SF-295 CNS
[35] = test system: UO-31 renal
[36] = test system: BT-549 breast
[37] = test system: RXF 393 renal
[38] = test system: PC-3 prostate
[39] = test system: HCC-2998 colon
[40] = test system: RPMI-8226 leukemia
[41] = test system: MCF7 breast
[42] = test system: TK-10 renal
[43] = test system: SR leukemia
[44] = test system: SNB-19 CNS
[45] = test system: LOX IMVI melanoma
[46] = test system: HCT-116 colon
[47] = test system: KM12 colon
[48] = test system: SF-539 CNS
[49] = test system: HCT-15 colon
[50] = test system: HT29 colon
[51] = test system: SK-OV-3 ovarian
[52] = test system: OVCAR-3 ovarian
[53] = test system: SNB-75 CNS
[54] = test system: MALME-3M melanoma
[55] = test system: A549 NSCLC
[56] = test system: MOLT-4 leukemia
[57] = test system: M14 melanoma

For `C[C@H]1O[C@@H](O[C@H]2[C@@H](O)C[C@H](O[C@H]3[C@@H](O)C[C@H](O[C@H]4CC[C@]5(C)C6CC[C@]7(C)[C@@H](C8=CC(=O)OC8)CC[C@]7(O)C6CC[C@@H]5C4)O[C@@H]3C)O[C@@H]2C)C[C@H](O)[C@@H]1O` (some centres undefined), the GI50 [1] was 26.1 nM, the TGI [1] was 2220 nM and the GI50 [2] was 11.3 nM. It also gave a TGI [2] of 24.9 nM, a GI50 [3] of 19.2 nM and a TGI [3] of 67.5 nM. For the same compound, the GI50 [4] was 17.8 nM, the TGI [4] was 64.8 nM and the GI50 [5] was 30.9 nM. It also gave a TGI [5] of 102 nM, a TGI [6] of 73.2 nM and a GI50 [7] of 15.9 nM. For the same compound, the TGI [7] was 79.9 nM, the GI50 [8] was 16.7 nM and the TGI [8] was 112 nM. The GI50 [9] was 13 nM, the TGI [9] was 1570 nM and the GI50 [10] was 12.6 nM. For the same compound, the TGI [10] was 33.9 nM, the GI50 [11] was 11.8 nM and the TGI [11] was 29.5 nM. It also gave a GI50 [12] of 47.6 nM, a TGI [12] of 115 nM and a GI50 [13] of 19.2 nM. The TGI [13] was 75 nM, the GI50 [14] was 17.8 nM and the TGI [14] was 67.8 nM. It also gave a GI50 [15] of 14.4 nM, a TGI [15] of 43.5 nM and a GI50 [16] of 15.6 nM. It also gave a TGI [16] of 49.3 nM, a GI50 [17] of 15.9 nM and a TGI [17] of 57.8 nM. It also gave a GI50 [18] of 11.7 nM, a TGI [18] of 35.5 nM and a TGI [19] of 31.9 nM. The GI50 [20] was 17.2 nM, the TGI [20] was 59.6 nM and the GI50 [21] was 17 nM. The TGI [21] was 66.6 nM, the GI50 [22] was 9.73 nM and the TGI [22] was 23.1 nM. For the same compound, the GI50 [23] was 35.4 nM, the TGI [23] was 149 nM and the GI50 [24] was 18.6 nM. The TGI [24] was 67.6 nM, the GI50 [25] was 17.2 nM and the TGI [25] was 60.8 nM. For the same compound, the GI50 [26] was 20.3 nM, the TGI [26] was 73.4 nM and the GI50 [27] was 38.3 nM. It also gave a TGI [27] of 111 nM, a GI50 [28] of 31.3 nM and a TGI [28] of 101 nM. The GI50 [29] was 62.1 nM, the TGI [29] was 353 nM and the GI50 [30] was 14.1 nM. The TGI [30] was 38.3 nM, the GI50 [31] was 35.1 nM and the TGI [31] was 262 nM. The GI50 [32] was 12.6 nM, the TGI [32] was 39.1 nM and the GI50 [33] was 11.4 nM. It also gave a TGI [33] of 26.1 nM, a GI50 [34] of 14 nM and a TGI [34] of 54.5 nM. The GI50 [35] was 18.1 nM, the TGI [35] was 72.2 nM and the GI50 [36] was 16.3 nM. The TGI [36] was 50.8 nM, the GI50 [37] was 14.2 nM and the TGI [37] was 43.9 nM. The GI50 [38] was 19.4 nM, the TGI [38] was 106 nM and the GI50 [39] was 36.1 nM. The TGI [39] was 174 nM, the GI50 [40] was 19.4 nM and the TGI [40] was 135 nM. For the same compound, the GI50 [41] was 18.1 nM, the TGI [41] was 110 nM and the GI50 [42] was 16.5 nM. It also gave a TGI [42] of 50.4 nM, a TGI [43] of 51.2 nM and a GI50 [44] of 30 nM. The TGI [44] was 94.8 nM, the GI50 [45] was 15.6 nM and the TGI [45] was 54.9 nM. It also gave a TGI [46] of 49.4 nM, a GI50 [47] of 24.7 nM and a TGI [47] of 103 nM. The GI50 [48] was 14.1 nM, the TGI [48] was 37.3 nM and the GI50 [49] was 25.7 nM. It also gave a TGI [49] of 98.2 nM, a GI50 [50] of 19.3 nM and a TGI [50] of 65.3 nM. It also gave a GI50 [51] of 19 nM, a TGI [51] of 67 nM and a TGI [52] of 43 nM. It also gave a GI50 [53] of 18.2 nM, a TGI [53] of 102 nM and a GI50 [54] of 19 nM. For the same compound, the TGI [54] was 78.3 nM, the GI50 [55] was 7.76 nM and the TGI [55] was 15.5 nM. The GI50 [56] was 11.3 nM, the TGI [56] was 34.1 nM and the GI50 [57] was 32.8 nM. The TGI [57] was 98.6 nM.
